By inhibition is commonly meant the change of the read-out against control, counted positive when it falls. By MIC is commonly meant the lowest concentration found to suppress growth. A low value points to greater potency.

Converted amounts (≈) assume the structure as drawn.

Results on six molecules are retold here after ChEMBL document CHEMBL1255314, “Outbreak of Acinetobacter baumannii with chromosomally encoded VIM-1 undetectable by imipenem-EDTA synergy tests” (2008).

Experiment [1] concerns the target BlaVIM-1 (Escherichia coli) (UniProt Q8GDC1). The experiment can be described thus: Inhibition of VIM-1 activity in Escherichia coli extracts at 100 uM.
The target of experiment [2] is Metallo-beta-lactamase (Acinetobacter baumannii) (UniProt Q4F6N3). The experiment can be described thus: Activity of Acinetobacter baumannii isolate TZ42/166 VIM-1 assessed as compound hydrolysis.
For experiment [3] the target is unchanged. The experiment can be described thus: Activity of Acinetobacter baumannii VIM-1 assessed as compound hydrolysis.
For another experiment, the system named is Acinetobacter baumannii. The experiment can be described thus: Antimicrobial activity against Acinetobacter baumannii isolates by agar dilution method. The class given is functional. A general note: In agar dilution the substance is mixed into plates at graded concentrations.
The target of experiment [4] is Metallo-beta-lactamase (Acinetobacter baumannii) (UniProt Q4F6N3). The experiment can be described thus: Activity of Acinetobacter baumannii isolate TZ42/166 VIM-1 assessed as compound hydrolysis in presence of EDTA.

In experiment [1], `C[C@@H](O)[C@H]1C(=O)N2C(C(=O)O)=C(SCCNC=N)C[C@H]12` [IMIPENEM ANHYDROUS] yielded an inhibition of over 95%. The Activity in experiment [2] was 90 U; in experiment [3], 28 U; in experiment [4], 1.5 U. Moreover, in the experiment with Acinetobacter baumannii, the MIC turned out to be 16 mg/L (≈ 53.4 µM). `CC(C)(O/N=C(\C(=O)N[C@@H]1C(=O)N2C(C(=O)[O-])=C(C[n+]3ccccc3)CS[C@H]12)c1csc(N)n1)C(=O)O` [CEFTAZIDIME] returned an MIC in the experiment with Acinetobacter baumannii of over 64 mg/L. Same read-out and setting: with `CO/N=C(\C(=O)N[C@@H]1C(=O)N2C(C(=O)O)=C(COC(C)=O)CS[C@H]12)c1csc(N)n1` [CEFOTAXIME] the figure was over 64 mg/L; with `C[C@H]1[C@H](NC(=O)/C(=N\OC(C)(C)C(=O)O)c2csc(N)n2)C(=O)N1S(=O)(=O)O` [AZTREONAM], over 64 mg/L; with `C[C@@H](O)[C@H]1C(=O)N2C(C(=O)O)=C(S[C@@H]3CN[C@H](C(=O)N(C)C)C3)[C@H](C)[C@H]12` [MEROPENEM], 16 mg/L (≈ 41.7 µM). On the same count and under the same terms, under `CO/N=C(\C(=O)N[C@@H]1C(=O)N2C(C(=O)[O-])=C(C[N+]3(C)CCCC3)CS[C@H]12)c1csc(N)n1` [CEFEPIME] stands over 64 mg/L.
